Data reported in patent US10653672B2, “Myogenesis promotor, muscle atrophy inhibitor, medical composition and TAZ activator” (National University Corporation Tokyo Medical and Dental …, priority 2014, dated 2020).
Where “and” joins values, the source holds several entries; their conditions need not be identical. Identical values can stand only once.

Experiments:
calpain 1 = assay: Quantitative real-time PCR, calpain 1; assay type: cell-based, mouse; conditions: C2C12 cells, 10 μM; for Normarized mRNA abundance, Calpain1: listed as IBS008738
Method: (1) Quantitative real-time PCR was performed with C2C12 cells immediately before the induction of muscle formation (0 h), and after culturing under differentiation condition in a culture medium added with IBS008738 or DMSO at a concentration of 10 μM for 24 hours (24 h) and 72 hours (72 h), respectively. […] The line and error bar indicate the average value and the standard error, **p<0.05, and ns refers to not significant.
Evaluation was also performed under the same condition on M-cadherin, calpain 1 and caveolin 3, which are myofusion markers. As a result, there was no increase in the degree of gene transcription in the case with IBS008738.
The quantitative real-time PCR was performed with SYBER Green (Roche) and ABI7500 Realtime PCR system (Applied Biosystems).

HCT116 cells = assay: Immunoblotting of EMT markers in HCT116 cells; assay type: cell-based, human
Method: (1) A431 cells, (epidermoid carcinoma), A549 cells (adenocarcinomic human alveolar basal epithelial cell) and HCT116 cells (human colon cancer) were treated with IBS008738 or DMSO, respectively, and evaluated by immunoblotting.
HEK293, A431, A549, HCT116, MCF7 and SW480 cells were cultured in Dulbecco's Modified Eagle Medium (DMEM) containing 10% fetal bovine serum (FBS), 10 mM HEPES-NaOH at pH 7.4, 100 U/ml penicillin and 100 mg/I streptomycin under 5% CO2 at 37° C.

C2C12 cells = assay: Immunofluorescence of endogenous MyoD and TAZ in C2C12 cells; assay type: cell-based, mouse; conditions: 10 μM
Method: Immunostaining of endogenous MyoD and TAZ in C2C12 cells was performed at three stages, i.e., after being cultured in a medium added with IBS008738 or DMSO at a concentration of 10 μM under growth condition for 24 hours, after being cultured under differentiation condition for 24 hours, and after being cultured under differentiation condition for 72 hours (see FIG. 7B). Both MyoD and TAZ existed at each of the three stages. After being cultured under growth condition for 24 hours, MyoD and TAZ were diffusely distributed in the nuclei (top), but formed dots under differentiation condition. After being cultured under differentiation condition for 24 hours, some cells strongly expressed TAZ, whereas other cells expressed more MyoD (middle). After being cultured under differentiation condition for 72 hours, in the single-nuclear cells, TAZ expression decreased while MyoD was still expressed. In the multi-nuclear cells, both TAZ and MyoD were expressed and colocalized in the nuclei (bottom). […] However, at 24 hours under differentiation condition, colocalization of TAZ and MyoD in the single-nuclear cells and generation of cells with two or three nuclei were promoted in the case with IBS008738 as compared with the case with DMSO (middle). […] The immunostaining and the immunofluorescence analysis were performed by the method described in Exp Cell Res 313:1484-1495. The line in the figures is 50 μm.

A431 cells = assay: Proliferation of A431 cells in 3D matrigel; assay type: cell-based; conditions: A431 cells in 2% BD Matrigel; 10 μM; 10 days; maximum diameter of 30 cell aggregates
Method: (2) Each well of a 96-well plate was pre-coated with 30 μL BD Matrigel (trade name, Becton, Dickinson and Company). A431 cells were suspended in the 2% BD Matrigel at a concentration of 2.1×10^6 cells/mL. This cell solution (140 μL) was added with 0.17 μL of 10 mM IBS008739 stock solution in DMSO or 0.17 μL of DMSO, and used to layer the pre-coated wells, and proliferation in the 3D matrigel was observed (see FIG. 12B). 300 of A431 cells were placed in each well of Ultra Low Attachment 96-well plate, and cultured in a serum-free DMEM-F-12 medium containing 10 ng/mL FGF, 5 μg/mL insulin and 0.1% (w/v) BSA. Formation of tumor spheres was observed under the condition with 10 mM IBS008739 stock solution dissolved in DMSO so that the final concentration was 10 μM, or the condition with DMSO of the same volume (see FIG. 12C). The maximum diameter of 30 cell aggregates of 150 μm or more observed in the 3D matrigel or sphere formation condition) are measured as the size of 3D colony or sphere. The results are shown in Table 10 and FIGS. 12B and 12C. The line in the figure is 200 μm. The line and the error bar indicate the average value and the standard error, and ns refers to not significant.
Observation of the spheres and the 3D matrigel cultivation were performed by the following processes. […]

## Cc1ccc(-n2cnc(/N=C/N3CCOCC3)c2C(=O)c2ccccc2)cc1 [exemplary compound 1]
Calpain 1; 24 h and 72 h
  degree of gene transcription of calpain 1: no increase
Calpain 1; differentiation condition 24 h
  Normarized mRNA abundance, Calpain1: 0.84 and 0.81 and 0.98
Calpain 1; differentiation condition 72 h
  Normarized mRNA abundance, Calpain1: 1.15 and 1.18 and 1.22
HCT116 cells
  EMT markers (fibronectin, E-cadherin, N-cadherin and vimentin) compared with DMSO: no significant difference
C2C12 cells; 24 hours under differentiation condition, compared with DMSO
  colocalization of TAZ and MyoD in the single-nuclear cells and generation of cells with two or three nuclei: promoted
C2C12 cells; 72 hours under differentiation condition, compared with DMSO
  multinuclear cells: remarkably increased
C2C12 cells; growth condition 24 hours
  MyoD and TAZ immunostaining compared with DMSO: no significant difference from the case with DMSO was not observed
A431 cells
  3D colony size, average size (μm): 272.30 μm
